Converted amounts (≈) assume the structure as drawn. The source made the active and inactive calls. The calls are words filed in the database; no cut-off is given here.
What was measured:
BJ = test: Cytotoxicity against human BJ cells by MTT assay; type: functional
MRC5 = test: Cytotoxicity against human MRC5 cells by MTT assay; type: functional
Adenosine kinase [1] = target: T1, Adenosine kinase (Homo sapiens, UniProt P55263); test: Inhibition of human ADK expressed in Escherichia coli BL21(DE3) cells using [3H]adenosine by liquid scintillation counting method
Target sequence in this assay (P55263 whole entry): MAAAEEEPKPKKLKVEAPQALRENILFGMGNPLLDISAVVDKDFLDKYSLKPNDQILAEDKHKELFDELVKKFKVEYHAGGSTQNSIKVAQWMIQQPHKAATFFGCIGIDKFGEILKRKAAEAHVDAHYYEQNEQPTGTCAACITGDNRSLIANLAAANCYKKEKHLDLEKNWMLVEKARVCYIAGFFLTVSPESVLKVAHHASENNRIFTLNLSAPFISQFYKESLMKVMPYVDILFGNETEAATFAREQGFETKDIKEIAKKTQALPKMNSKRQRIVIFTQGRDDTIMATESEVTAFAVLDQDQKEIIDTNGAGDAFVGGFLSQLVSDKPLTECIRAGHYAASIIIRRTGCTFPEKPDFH

[2] = Inhibition of Mycobacterium tuberculosis ADK expressed in Escherichia coli BL21(DE3) cells using [3H]adenosine by liquid scintillation counting method
[3] = test system: Mycobacterium tuberculosis; test: Antimycobacterial activity against Mycobacterium tuberculosis H37Rv My 331/88 assessed as microbial growth inhibition incubated for 14 days; type: functional; details: H37Rv My 331/88, 336 h
[4] = test system: Mycobacterium tuberculosis; test: Activity of Mycobacterium tuberculosis ADK expressed in Escherichia coli BL21(DE3) cells assessed as compound phosphorylation by measuring conversion of compound to 5'-phosphate
Adenosine kinase [5] = target: T1, Adenosine kinase; test: Binding affinity to human ADK expressed in Escherichia coli BL21(DE3) cells assessed as relative STD enhancements of signal from H-1' at 500 uM by 1H STD NMR spectroscopy
Target sequence in this assay (P55263 2-362 limits assumed): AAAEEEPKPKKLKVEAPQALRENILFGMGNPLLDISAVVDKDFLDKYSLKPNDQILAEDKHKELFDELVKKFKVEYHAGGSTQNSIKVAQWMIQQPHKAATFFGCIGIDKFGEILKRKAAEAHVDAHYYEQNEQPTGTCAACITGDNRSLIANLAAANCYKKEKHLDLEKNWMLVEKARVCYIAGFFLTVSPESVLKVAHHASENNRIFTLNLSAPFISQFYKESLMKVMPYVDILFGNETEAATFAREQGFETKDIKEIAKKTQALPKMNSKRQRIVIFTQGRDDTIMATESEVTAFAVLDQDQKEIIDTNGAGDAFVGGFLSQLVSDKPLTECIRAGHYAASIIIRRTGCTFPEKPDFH

Adenosine kinase [6] = target: T1, Adenosine kinase; test: Binding affinity to human ADK expressed in Escherichia coli BL21(DE3) cells assessed as relative STD enhancements of signal from H-2 at 500 uM by 1H STD NMR spectroscopy
Target sequence in this assay (P55263 2-362 limits assumed): as above

Adenosine kinase [7] = target: T1, Adenosine kinase; test: Binding affinity to human ADK expressed in Escherichia coli BL21(DE3) cells assessed as relative STD enhancements of signal from H-8 at 500 uM by 1H STD NMR spectroscopy
Target sequence in this assay (P55263 2-362 limits assumed): as above

Adenosine kinase [8] = target: T1, Adenosine kinase; test: Binding affinity to human ADK expressed in Escherichia coli BL21(DE3) cells assessed as relative STD enhancements of signal from Ar at 500 uM by 1H STD NMR spectroscopy
Target sequence in this assay (P55263 2-362 limits assumed): as above

[9] = test system: Mycobacterium tuberculosis; test: Binding affinity to Mycobacterium tuberculosis ADK expressed in Escherichia coli BL21(DE3) cells assessed as relative STD enhancements of signal from H-1' at 500 uM by 1H STD NMR spectroscopy
[10] = test system: Mycobacterium tuberculosis; test: Binding affinity to Mycobacterium tuberculosis ADK expressed in Escherichia coli BL21(DE3) cells assessed as relative STD enhancements of signal from H-2 at 500 uM by 1H STD NMR spectroscopy
[11] = test system: Mycobacterium tuberculosis; test: Binding affinity to Mycobacterium tuberculosis ADK expressed in Escherichia coli BL21(DE3) cells assessed as relative STD enhancements of signal from H-8 at 500 uM by 1H STD NMR spectroscopy
[12] = test system: Mycobacterium tuberculosis; test: Binding affinity to Mycobacterium tuberculosis ADK expressed in Escherichia coli BL21(DE3) cells assessed as relative STD enhancements of signal from Ar at 500 uM by 1H STD NMR spectroscopy
Adenosine kinase [13] = target: T1, Adenosine kinase; test: Binding affinity to free human ADK expressed in Escherichia coli BL21(DE3) cells by two dimensional 15N/1H triple-resonance HSQC NMR spectroscopy
Target sequence in this assay (P55263 2-362 limits assumed): as above

Adenosine kinase [14] = target: T1, Adenosine kinase; test: Binding affinity to human ADK expressed in Escherichia coli BL21(DE3) cells in presence of adenosine by two dimensional 15N/1H triple-resonance HSQC NMR spectroscopy
Target sequence in this assay (P55263 2-362 limits assumed): as above

Adenosine kinase [15] = target: T1, Adenosine kinase; test: Binding affinity to human ADK expressed in Escherichia coli BL21(DE3) cells in presence of ATPgammaS by two dimensional 15N/1H triple-resonance HSQC NMR spectroscopy
Adenosine kinase [16] = target: T1, Adenosine kinase; test: Activity of human ADK expressed in Escherichia coli BL21(DE3) cells assessed as compound phosphorylation by measuring conversion of compound to 5'-phosphate; set-up: concentration or dose not given beside the values
[17] = test system: Mycobacterium tuberculosis; test: Binding affinity to Mycobacterium tuberculosis ADK expressed in Escherichia coli BL21(DE3) cells assessed as relative STD enhancements of signal from Ar' at 500 uM by 1H STD NMR spectroscopy
[18] = test system: Mycobacterium tuberculosis; test: Binding affinity to Mycobacterium tuberculosis ADK expressed in Escherichia coli BL21(DE3) cells assessed as relative STD enhancements of signal from Ar'' at 500 uM by 1H STD NMR spectroscopy
Adenosine kinase [19] = target: T1, Adenosine kinase; test: Mixed uncompetitive inhibition of human ADK expressed in Escherichia coli BL21(DE3) cells using varying ATP levels by Lineweaver-Burk plot
[20] = test system: Mycobacterium tuberculosis; test: Mixed competitive inhibition of Mycobacterium tuberculosis ADK expressed in Escherichia coli BL21(DE3) cells using varying ATP levels by Lineweaver-Burk plot
Adenosine kinase [21] = target: T1, Adenosine kinase; test: Mixed competitive inhibition of human ADK expressed in Escherichia coli BL21(DE3) cells using varying adenosine levels by Lineweaver-Burk plot
[22] = test system: Mycobacterium tuberculosis; test: Mixed competitive inhibition of Mycobacterium tuberculosis ADK expressed in Escherichia coli BL21(DE3) cells using varying adenosine levels by Lineweaver-Burk plot

SMILES | CC50 (BJ) | CC50 (MRC5) | IC50 (Adenosine kinase [1]) | IC50 [2] | MIC [3] | Activity [4] | Activity (Adenosine kinase [5]) | Activity (Adenosine kinase [6]) | Activity (Adenosine kinase [7]) | Activity (Adenosine kinase [8]) | Activity [9] | Activity [10] | Activity [11] | Activity [12] | Activity (Adenosine kinase [13]) | Activity (Adenosine kinase [14]) | Activity (Adenosine kinase [15]) | Activity (Adenosine kinase [16]) | Activity [17] | also measured
Nc1ncnc2c1c(-c1cccc3c1Oc1ccccc1S3)cn2[C@@H]1O[C@H](CO)[C@@H](O)[C@H]1O | > 100 µM | 95.1 µM | > 20 µM | 300 nM | 16 µM (≈ 7.43 µg/mL) | inactive | 100% | 33% | 39% | 60% | 100% | 50% | 68% | 83% | Active | Active | Active |  |  | 
Nc1ncnc2c1c(-c1ccco1)cn2[C@@H]1O[C@H](CO)[C@@H](O)[C@H]1O | 18.3 µM | 9.49 µM | > 5 µM | 2100 nM | 62.5 µM (≈ 20.8 µg/mL) | inactive | 100% | 64% | 36% | 74% | 100% | 43% | 29% | 38% | Active | Active | Active | 8% | 31% | Activity [18]: 39%
Nc1ncnc2c1c(-c1nccs1)cn2[C@@H]1O[C@H](CO)[C@@H](O)[C@H]1O | > 100 µM | 25.1 µM | 2.3 µM | 4500 nM | 125 µM (≈ 43.7 µg/mL) | inactive | 100% | 57% | 41% | 52% | 100% | 37% | 33% | 34% | Active | Active | Active | 3% | 45% | 
C#Cc1cn([C@@H]2O[C@H](CO)[C@@H](O)[C@H]2O)c2ncnc(N)c12 | 43.1 µM | 13.4 µM |  | 330 nM | 8 µM (≈ 2.32 µg/mL) | inactive | 100% | 33% | 17% |  | 100% | 63% | 54% |  | Active | Active | Active | 62% |  | inhibition (Adenosine kinase [19]): Active; inhibition [20]: Active; inhibition (Adenosine kinase [21]): Active; inhibition [22]: Active
CC(C)c1cccc(-c2cn([C@@H]3O[C@H](CO)[C@@H](O)[C@H]3O)c3ncnc(N)c23)c1 | > 100 µM | > 100 µM | 3.3 µM | 2330 nM | 32 µM (≈ 12.3 µg/mL) | inactive | 100% | 72% | 72% | 52% | 100% | 42% | 42% | 37% | Active | Active | Active |  |  | 

From ChEMBL document CHEMBL3352218, “Structural basis for inhibition of mycobacterial and human adenosine kinase by 7-substituted 7-(Het)aryl-7-deazaadenine ribonucleosides” (J Med Chem, 2014)
